Source: patent US7598419B2, “Compounds for modulating cell proliferation” (HSC Research and Development Limited Partnership, priority 2004, dated 2009)

What was measured:
[1] = system: cells of the myeloid lineage; conditions: in vitro, ex vivo and in vivo; cited from earlier work
normal bone marrow cells [2] = test: In vitro purging of normal bone marrow; format: cell-based, human; conditions: 50 μM, seven hours exposure; FIG. 21
Procedure: Heparinized bone marrow cells were layered over Percoll (1.077 gm/ml) (Pharmacia Fine Chemical, Piscataway N.J.) and centrifuged at 400 g at 4° C. for 10 minutes to remove neutrophils and RBCs.
(§1) For the purging process, the cells were resuspended at 1×10^6/ml in complete medium with or without 50 μM CR4. The cells were incubated with the CR4 for two and a half hours at 37° C., 5% CO2. At the end of this period the cells were thoroughly washed in medium to remove CR4 and then cultured at 2×10^5 cells/ml in IMDM (OCI, Toronto) containing 0.9% (vol/vol) methylcellulose supplemented with 30% FCS (Cansera Rexdale, ON.) or normal human plasma, a cocktail of cytokines containing G-CSF (10 ng/ml, Amgen), IL-3 (40 U/ml, Immunex), MGF (50 ng/ml, Immunex), Erythropoietin (2 u/ml, Epprex) or TPO (10 ng/ml, Amgen) and 5×10^−5M β-2-mercaptoethanol. The culture mixture was plated in 1 ml volumes into 35 mm petri dishes and incubated at 37° C., 5% CO2 in a humidified atmosphere. All cultures were evaluated at 14 days for the number of BFU-E colonies (defined as aggregates of more than 500 hemaglobinized cells or, 3 or more erythroid subcolonies), CFU-C colonies (defined as granulocyte or monocyte-macrophage cells or both) and CFU-GEMM colonies (a mixed population comprising of all elements).
as §1, with “μM CR11.” for “μM CR4.”, “the tryrphostin” for “the CR4”, “for seven” for “for two and a half”, “remove CR11” for “remove CR4”, “methylcellulose supplementd” for “methylcellulose supplemented”, “500 hemoglobinized” for “500 hemaglobinized”

[3] = system: Philadelphia positive acute lymphoblastic leukemia cells; test: In vitro purging of Philadelphia positive ALL with CR11; format: cell-based, human; conditions: 50 μM, 7 hours exposure; FIG. 22
Procedure: For the purging assay, the cells were resuspended in complete medium with or without CR11 as indicated and incubated at 37° C., 5% CO2 for 0-7 hours. Cells were then washed thoroughly with medium to remove the CR11, resuspended and plated in 1 ml volumes, in the absence of exogenous growth factors, into 35 mm petri dishes (Nunc, Gibco) containing alpha MEM (Gibco) plus 20% FCS (Cansera Rexdale, ON.) in 0.9% (vol/vol) methylcellulose (Fluka, Switzerland). Cultures were set at 37° C., 5% CO2 in a humidified atmosphere. Colonies consisting of more than 20 cells were counted at 9 days or earlier using an inverted microscope.

[4] = system: a variety of cancer cells; test: Growth of cancer cells in culture (summary over cell types); format: cell-based; conditions: for effectiveness against a variety of cell types: Acute Lymphoblastic Leukemia, Philadelphia positive Leukemia, Acute Myeloid Leukemia
[5] = system: Philadelphia positive ALL, AML and lymphoma; test: High dose ex vivo / in vitro purging assays (summary); format: cell-based
normal bone marrow cells [6] = test: CFU-GEMM assay: normal bone marrow differentiation in culture; format: cell-based, human
Procedure: (§2) The CFU-GEMM assay was performed according to Fauser and Messner (1978, Blood, 52(6) 143-8) and Messner and Fausser (1980, Blut, 41(5) 327-33) with some variations. In brief, heparinized bone marrow cells were layered over Percoll (1.077 gm/ml) (Pharmacia Fine Chemical, Piscataway N.J.) and centrifuged at 400 g at 4° C. for 10 minutes to remove neutrophils and RBCs. The fractionated BM cells at 2×10^5 cells/ml were cultured in IMDM (OCI, Toronto) containing 0.9% (vol/vol) methylcellulose supplementd with 30% FCS (Cansera Rexdale, ON.) or normal human plasma, a cocktail of cytokines containing G-CSF (10 ng/ml, Amgen), IL-3 (40 U/ml, Immunex), MGF (50 ng/ml, Immunex), Erythropoietin (2 u/ml, Epprex) or TPO (10 ng/ml, Amgen), 5×10^−5M β-2-mercaptoethanol and the specified concentration of CR4. The culture mixture was plated in 1 ml volumes into 35 mm petri dishes and incubated at 37° C., 5% CO2 in a humidified atmosphere. All cultures were evaluated at 14 days for the number of BFU-E colonies (defined as aggregates of more than 500 hemoglobinized cells or, 3 or more erythroid subcolonies), CFU-GM colonies (defined as granulocyte or monocyte-macrophage cells or both), CFU-Meg colonies (comprising 4 or more megakaryocytes) and CFU-GEMM colonies (a mixed population comprising of all elements).
as §2, with “1243-8)” for “143-8)”, “concentrations” for “concentration”, “CR19.” for “CR4.”, “hemaglobinized” for “hemoglobinized”, “subcolonies) and CFU-C” for “subcolonies), CFU-GM”, “both).” for “both), CFU-Meg colonies (comprising 4 or more megakaryocytes) and CFU-GEMM colonies (a mixed population comprising of all elements).”
as §2, with “1243-8)” for “143-8)”, “variations (British Journal of Haematology, 1992, 80, p 40-48).” for “variations.”, “test compound.” for “CR4.”, “CO2,” for “CO2”, “subcolonies) and CFU-C” for “subcolonies), CFU-GM”, “both).” for “both), CFU-Meg colonies (comprising 4 or more megakaryocytes) and CFU-GEMM colonies (a mixed population comprising of all elements).”

[7] = system: Philadelphia positive acute lymphoblastic leukemia (Ph+ ALL) cells; test: Colony assay of Philadelphia positive ALL cells in methylcellulose culture; format: cell-based, human
Procedure: Ph+ ALL cells were plated in 1 ml volumes, in the absence of exogenous growth factors, into 35 mm petri dishes (Nunc, Gibco) containing alpha MEM (Gibco) plus 10-20% FCS (Cansera Rexdale, ON.) in 0.9% (vol/vol) methylcellulose (Fluka, Switzerland) with the indicated concentrations of CR4. Cultures were set at 37° C., 5% CO2 in a humidified atmosphere. Colonies consisting of more than 20 cells were counted at 12 days or earlier using an inverted microscope.
ALL cells were plated in 1 ml volumes, in the absence of exogenous growth factors, into 35 mm petri dishes (Nunc, Gibco) containing alpha MEM (Gibco) plus 20% FCS (Cansera Rexdale, ON.) in 0.9% (vol/vol) methylcellulose (Fluka, Switzerland) and the indicated concentrations of compound. Cultures were set at 37° C., 5% CO2 in a humidified atmosphere. Colonies consisting of more than 20 cells were counted at 12 days or earlier using an inverted microscope.
ALL cells were plated in 1 ml volumes, in the absence of exogenous growth factors, into 35 mm petri dishes (Nunc, Gibco) containing alpha MEM (Gibco) plus 20% FCS (Cansera Rexdale, ON.) in 0.9% (vol/vol) methylcellulose (Fluka, Switzerland) and the indicated concentrations of CR24. Cultures were set at 37° C., 5% CO2 in a humidified atmosphere. Colonies consisting of more than 20 cells were counted at 9 days or earlier using an inverted microscope.
ALL cells were plated in 1 ml volumes, in the absence of exogenous growth factors, into 35 mm petri dishes (Nunc, Gibco) containing alpha MEM (Gibco) plus 20% FCS (Cansera Rexdale, ON.) in 0.9% (vol/vol) methylcellulose (Fluka, Switzerland) and the indicated concentrations of CR19. Cultures were set at 37° C., 5% CO2 in a humidified atmosphere. Colonies consisting of more than 20 cells were counted at 9 days or earlier using an inverted microscope.

[8] = low nanomolar doses, long term exposure

## COc1cc(/C=C/C=C(C#N)C#N)cc(OC)c1O [CR7, (E,E)-2-cyano-3-(3,5-dimethoxy-4-hydroxystyryl)acrylonitrile]
[1]
  promotion of myelopoiesis: capable of promoting myelopoiesis

## COc1cc(/C=C/C=C(\C#N)C(=O)NCCc2ccccc2)cc(OC)c1O [CR8, (E,E)-2-(Phenylethylaminocarbonyl)-3-(3,5-dimethoxy-4-hydroxystyryl)acrylonitrile]
[1]
  promotion of myelopoiesis: capable of promoting myelopoiesis

## COc1cc(/C=C/C=C(\C#N)C(=O)NCc2ccc(O)c(O)c2)cc(OC)c1O [CR11, (E,E)-2-(3,4-Dihydroxybenzylaminocarbonyl)-3-(3,5-dimethoxy-4-hydroxystyryl)acrylonitrile]
Normal bone marrow cells [2]
  BFU-E, CFU-GEMM and CFU-C colonies after purging: all normal
  colony formation of normal bone marrow after purging: did not result in any significant inhibition
[3]
  killing of Ph+ ALL cells after purging: complete killing
[4]
  effectiveness against a variety of cell types: highly effective
[5]
  effectiveness as ex vivo purging agents: effective
[1]
  promotion of myelopoiesis: capable of promoting myelopoiesis

## N#C/C(=C\C=C\c1ccccc1)C(=O)NCc1ccc(O)c(O)c1 [CR19, (E,E)-2-(3,4 Dihydroxybenzylaminocarbonyl)-3-styrylacrylonitrile]
Normal bone marrow cells [6]; 2.5 μM, 14 days, FIG. 12
  CFU-C colony formation: boosted
  development of BFU-E colonies: significant inhibition
Normal bone marrow cells [6]; 5 μM, 14 days, FIG. 12
  BFU-E colonies: virtually absent
  CFU-C colony formation: stimulatory effect disappeared
Normal bone marrow cells [6]; [8]
  normal cell growth and differentiation: unaffected
[4]
  effectiveness against a variety of cell types: highly effective
[4]; [8]
  toxicity to cancer cells: highly toxic
[1]
  promotion of myelopoiesis: capable of promoting myelopoiesis

## N#C/C(=C\C=C\c1ccc(O)c(O)c1)C(=O)NCc1ccc(O)c(O)c1 [CR21, (E,E)-2-(3,4 Dihydroxybenzylaminocarbonyl)-3-(3,4-dihydroxystyryl)acrylonitrile]
Normal bone marrow cells [6]; 20 μM, 14 days, FIG. 13
  BFU-E colony formation: caused inhibition
[7]; Example 42, FIG. 8, colonies at 12 days
  concentrations displaying inhibition of Ph+ ALL cell growth: 5 µM

## COc1cc(/C=C/C=C(\C#N)C(=O)NCCO)cc(OC)c1O [CR24, (E,E)-2-(β-Ethanolaminocarbonyl)-3-(3,5-dimethoxy-4-hydroxystyryl)acrylonitrile]
Normal bone marrow cells [6]; 10 or 20 μM, 14 days, FIG. 13
  bone marrow colony formation: minimal inhibition
[7]; colonies at 9 days, FIG. 10
  lowest concentration effective against Ph+ ALL cells: 0.5 µM

## COc1cc(/C=C/C=C(\C#N)C(=O)NCc2ccccc2)ccc1O [CR56, (E,E) 2-(benzylaminocarbonyl)-3-(3-methoxy-4-hydroxystyryl)acrylonitrile]
[1]
  promotion of myelopoiesis: capable of promoting myelopoiesis
